Test results published in patent US20150366839A1, “Schisantherin A for the treatment of neurodegenerative diseases” (priority 2014, published 2015).

Experiments:
SH-SY5Y cells [1] = test: MTT cytotoxicity of the five lignans; type: cell-based
Experimental: (§1) Human neuroblastoma SH-SY5Y cells were purchased from the American Type Culture Collection (ATCC, Manassas, Va., USA) and cultured in a humidified 5% (v/v) CO2 atmosphere in 37° C. in Dulbecco's Modified Eagle Medium (DMEM) (Life technologies, NY, USA) supplemented with 10% FBS, 1% penicillin (100 U/mL) and streptomycin (100 μg/mL). All experiments were carried out 48 h after the cells were seeded.
(§2) Cell viability was determined by 3-(4,5-dimethyl-2-thiazolyl) 2,5-diphenyl-2H-tetrazolium bromide (MTT) assay (Sigma-Aldrich, USA). SH-SY5Y cells were seeded in 96-well plates (1×10^4 cells/well) for 48 h. SH-SY5Y cells were pre-treated with different concentrations of the five lignans (i.e. Schizandrin A, Schizandrin B, SC, Schizandrol A and SchiA) for 12 h and the cell viability was checked by MTT assay. Otherwise, SH-SY5Y cells were pre-treated with different concentrations of the five lignans for 12 h and then exposed to 400 μM 6-OHDA for 4 h. Cells were incubated at 37° C. for 4 h in 0.5 mg/mL MTT solution (prepared in serum free DMEM medium). The medium was then removed, and 100 μL of DMSO was added to each well to dissolve the violet-formazan crystals. The absorbance at 570 nm with 655 nm as a reference wavelength was measured by a multi-label counter (Wallac VICTOR3TMV, Perkin Elmer, Netherlands). Cell viability was expressed as a percentage of the value of the cells without 6-OHDA treatment. The LC50 and EC50 were calculated by GraphPad Prism V5.0 (GraphPad Software, Inc., San Diego, Calif.).
To evaluate the cytotoxicity of five selected lignans of S. chinensis, SH-SY5Y cells were treated with various concentrations of the tested compounds for 12 h and the cell viability was measured using the MTT assay.
To evaluate the cytotoxicity of five selected lignans of S. chinensis, SH-SY5Y cells were treated with various concentrations of the tested compounds for 12 h and the cell viability was measured using the MTT assay. […] To further study the neuroprotective activities of the five lignans in vitro, cells were treated with various concentrations of the tested compounds for 12 h before exposed to MPP^+. […] Values represent mean±S.D. ###P<0.005 versus control group; *p<0.05, **p<0.01 and *** p<0.005 versus MPP group. […] The therapeutic index of SchiA and SC were 14.9 and 8.8, respectively.

ERK1/2 = test: ERK phosphorylation after 6-OHDA, Western blot; type: cell-based, Human
Experimental: (§3) After treatment, SH-SY5Y cells were washed three times with PBS and then lysis with RIPA lysis buffer containing 1% PMSF and 1% Protease Inhibitor Cocktail and incubated for 30 min on ice. Cell lysates were centrifuged at 12,500 g for 20 min at 4° C. The supernatant was separated and the amount of protein was determined using the BCA protein assay kit (Thermo Scientific Pierce, USA). Protein samples (30 μg) were separated by SDS-PAGE (10% (w/v)) polyacrylamide gel and then transferred to a polyvinylidene difluoride (PVDF) membrane (Bio-Rad, Hercules, Calif.). Subsequently, the membrane was blocked with 5% (v/v) non-fat milk in PBST (PBS containing 0.1% Tween 20) for 1 h at room temperature. The blots were incubated overnight at 4° C. with primary antibodies. After three washes with PBST, the membranes were incubated with horseradish peroxidase-conjugated secondary antibodies (1:2000) in PBST with 5% non-fat milk for 1 h at room temperature. After repeated washes, proteins were visualized with an ECL advanced western blotting detection kit. Photographs of protein bands were taken by a Molecular Imager ChemiDoc XRS (Bio-Rad, Hercules, Calif.). Quantitative assessment of protein bands was done with Gel Doc™ XRS equipped with Quantity One software. […]

GSK3β = GSK3β phosphorylation (Ser9) after 6-OHDA, Western blot; type: cell-based, Human; details: pretreated 12 h, then 400 μM 6-OHDA 4 h
Experimental: as §3

Bax and Bcl-2 = Bax and Bcl-2 expression in MPP+-treated cells, Western blot; type: cell-based, Human
Experimental: After treatment, SH-SY5Y cells were washed three times with PBS and then lysis with RIPA lysis buffer containing 1% PMSF and 1% Protease Inhibitor Cocktail and incubated for 30 min on ice. Cell lysates were centrifuged at 12,500 g for 20 min at 4° C. The supernatant was separated and the amount of protein was determined using the BCA protein assay kit (Thermo Scientific Pierce, USA). Protein samples (30 μg) were separated by SDS-PAGE (10% (w/v)) polyacrylamide gel and then transferred to a polyvinylidene difluoride (PVDF) membrane (Bio-Rad, Hercules, Calif.). Subsequently, the membrane was blocked with 5% (v/v) non-fat milk in PBST (PBS containing 0.1% Tween 20) for 1 h at room temperature. The blots were incubated overnight at 4° C. with primary antibodies. After three washes with PBST, the membranes were incubated with horseradish peroxidase-conjugated secondary antibodies (1:2000) in PBST with 5% non-fat milk for 1 h at room temperature. After repeated washes, proteins were visualized with an ECL advanced western blotting detection kit. Photographs of protein bands were taken by a Molecular Imager ChemiDoc XRS (Bio-Rad, Hercules, Calif.). Quantitative assessment of protein bands was done with Gel Doc™ XRS equipped with Quantity One software.
To investigate whether SchiA has any effect on the expression of Bax and Bcl-2 proteins in MPP^+-induced SH-SY5Y cells, the expression levels of Bax and Bcl-2 were determined by Western blot analysis. SH-SY5Y cells were pretreated with 60 μM SchiA for 12 h before incubating with 2 mM MPP for 36 h. The expression of Bax or Bcl-2 in cell lysates was determined by Western blot analysis. […] In this study, β-actin was shown as an internal control. In FIGS. 15A-B, the Bax/Bcl-2 ratio are expressed as a percentage of that of the control group. ###P<0.005 versus control group; ***P<0.005 versus MPP group.

SH-SY5Y cells [2] = test: MTT neuroprotection against 6-OHDA-induced cytotoxicity; type: cell-based, Human
Experimental: as §1, §2
To further study the neuroprotective activities of the five lignans against 6-OHDA-induced cytotoxicity, cells were treated with various concentrations (3, 6, 12, 25, 50 and 100 μM) of the tested compounds for 12 h before exposed to 400 μM 6-OHDA for 4 h.

caspase-7 = test: MPP+-induced caspase-7 activation, Western blot; type: cell-based, Human; details: 60 μM 12 h, then 2 mM MPP+ 36 h
Experimental: After treatment, SH-SY5Y cells were washed three times with PBS and then lysis with RIPA lysis buffer containing 1% PMSF and 1% Protease Inhibitor Cocktail and incubated for 30 min on ice. Cell lysates were centrifuged at 12,500 g for 20 min at 4° C. The supernatant was separated and the amount of protein was determined using the BCA protein assay kit (Thermo Scientific Pierce, USA). Protein samples (30 μg) were separated by SDS-PAGE (10% (w/v)) polyacrylamide gel and then transferred to a polyvinylidene difluoride (PVDF) membrane (Bio-Rad, Hercules, Calif.). Subsequently, the membrane was blocked with 5% (v/v) non-fat milk in PBST (PBS containing 0.1% Tween 20) for 1 h at room temperature. The blots were incubated overnight at 4° C. with primary antibodies. After three washes with PBST, the membranes were incubated with horseradish peroxidase-conjugated secondary antibodies (1:2000) in PBST with 5% non-fat milk for 1 h at room temperature. […] Quantitative assessment of protein bands was done with Gel Doc™ XRS equipped with Quantity One software.
The inventors performed Western blot to measure the expression of active-form of caspase-3 and caspase-7 in SH-SY5Y cells. […] Caspase-3 activity was expressed as units per mg protein. ###p<0.005 versus control group; *p<0.05, **p<0.01 and *** p<0.005 versus MPP+ group.

[3] = 60 μM 12 h, then 2 mM MPP+ 36 h

## COc1cc2c(c(OC)c1OC)-c1c(cc3c(c1OC)OCO3)C[C@H](C)[C@](C)(O)[C@H]2OC(=O)c1ccccc1 [SchiA, Schisantherin A]
SH-SY5Y cells [1]
  CC50: 121 µM
ERK1/2; 60 μM 12 h, then 400 μM 6-OHDA 4 h
  6-OHDA-induced reduction in ERK1/2 phosphorylation: prevented the reduction in ERK1/2 phosphorylation
ERK1/2; 60 μM, without 6-OHDA
  phosphorylated ERK1/2 level, compound alone: did not change
GSK3β
  6-OHDA-induced repression of GSK3β phosphorylation at serine 9: completely blocked
Bax and Bcl-2; [3]
  MPP+-induced down-regulation of Bcl-2 expression: could inhibit the down-regulation of Bcl-2 expression
  MPP+-induced increase of the Bax/Bcl-2 ratio: effectively prevented
Bax and Bcl-2; 60 μM, compared with control group
  Bax protein expression: did not changed significantly
Bax and Bcl-2; 60 μM, without MPP+
  Bcl-2 expression, compound alone: increase the expression of Bcl-2
SH-SY5Y cells [2]; 3, 6, 12, 25, 50 and 100 μM for 12 h before 400 μM 6-OHDA 4 h
  protection against 6-OHDA-induced damage (cell viability): protected SH-SY5Y cells against 6-OHDA-induced damage in a dose-dependent manner
SH-SY5Y cells [2]; pre-treated 12 h, then 400 μM 6-OHDA 4 h
  EC50: 8.1 µM
caspase-7
  MPP+-induced caspase-7 activation (active form): significant decrease
